Experimental findings from US7169815B2, “3-methoxybenzyl thiourea derivatives and improved lipid compositions containing same” (The United States of America as represented by the …, priority 2000, dated 2007) are described below.

In brackets after ≈: the same amount, converted by molar mass. Read-outs that look alike come from different tables or passages of the source. A value given as a limit tells only on which side of the number the result lay.

The term LC50 denotes the concentration that kills 50% of the test population. As usually defined, the solubility is the concentration that dissolves in the medium under given conditions.

Data set [1] in a line: Oxidative Stability by Rotating Pressure Vessel (RBOT) of refined meadowfoam seed oil plus thiourea compounds. As to conditions: for Oxidative Stability (RBOT): Refined Meadowfoam Seed Oil plus 0.1% compound; for Oxidative stability in the RBOT test, in words: addition of 0.1% compound. The text has this:
Another presently preferred method of determining oxidative stability of lipids and oils employs the Oxidative Stability by Rotating Pressure Vessel (RBOT) test. In this test, oxidative stability, determined according to the ASTM D2272-98 test method (ASTM, 2001, “Standard Test Method for Oxidation Stability of Steam Turbine Oils by Rotating Pressure Vessel,” in Book of Standards, Vol. 05.01., American Society for Testing and Materials, West Conshohocken, Pa.), measures the time for oxygen pressure to decrease in a closed stainless steel vessel containing a lipid or oil when heated with a copper coil catalyst. Oxygen taken up by the lipid or oil during the reaction is an indication of oil degradation.
In these experiments, Oxidative Stability by Rotating Pressure Vessel (RBOT) tests were performed with different 3-methoxybenzyl thiourea compounds synthesized in Example 3 that were mixed in different quantities with different mono- and polyunsaturated vegetable oils. Hexane was used to clean and store the copper coils, but all other aspects of the Oxidative Stability by Rotating Pressure Vessel (RBOT) test were the same as in the standard ASTM D2272–98 test method (ASTM, 2001, “Standard Test Method for Oxidation Stability of Steam Turbine Oils by Rotating Pressure Vessel,” in Book of Standards, Vol. 05.01., American Society for Testing and Materials, West Conshohocken, Pa.).

A short description of data set [2]: UVB and UVA molar absorptivities in chloroform. Format: physicochemical. As to conditions: 0.01 mg/ml in chloroform; for UVBMAX Molar Absorptivity: Amax in 280–320 nm; for UVAMAX Molar Absorptivity: Amax in 320–400 nm. How it is done: The compounds synthesized in Example 3 were tested to determine their ability to absorb […] UVA light. UV spectra of quantitatively weighed and diluted samples (0.01 mg/ml) in chloroform were scanned from 244–450 nm at 240 nm/min on a Beckman DU 640 spectrophotometer (Beckman Coulter, Inc., Fullerton, Calif.). Amax in the 280–320 nm range was determined and converted to molar absorptivity for the UVB region, and Amax in the 320–400 nm range was determined and converted to molar absorptivity for the UVA region.

The nature of another data set: in vivo. As to conditions: Artemia salina (brine shrimp), in vivo, other: exposure in seawater in microplate wells. How it is done:
(§1) Brine shrimp eggs (Artemia salina) were obtained from Brine Shrimp Direct, Ogden, Utah and stored at 10° C. until used. Eggs (400 mg) were added to 1 l of deionized water containing 40 g of sea salts (Sigma Chemical Co., St. Louis, Mo.).
(§2) Serial dilutions were performed in 100 μl of seawater in triplicate in the wells of a 96-well microplate to give appropriate concentrations. Control wells for both water and DMSO were included with each experiment. […] The number of non-motile, and the total number of, naupli were counted in each well using a binocular microscope (10×).

The subject of data set [3] is Brine Shrimp (Artemia Salina). The data set can be described thus: in vivo. As to conditions: as Table 7 shows. How it is done:
as §1, §2

The nature of data set [4]: Solubility in refined meadowfoam seed oil (HPLC). Format: physicochemical. The note with it: oil or lipid, thermodynamic from solid, cooled to room temperature overnight. How it is done:
Typical retention times were 7–9 min for the thioureas. Samples were weighed accurately (about 0.1 g) into 1.00 g of refined meadowfoam seed oil and heated to temperature (either 30° C. or 50° C.) for 4 h with occasional shaking. The samples were cooled to room temperature overnight, centrifuged and 0.3 g of the supernatant oil was removed and diluted with 1 ml CHCl3 for testing.

The nature of data set [5]: Decomposition temperature by differential scanning calorimetry. Format: physicochemical. As to conditions: DSC, onset of decrease in slope of temperature-heat flow curve; unit not given (scans in ° C.). How it is done:
A dual cell Perkin Elmer differential scanning calorimeter (PE DSC 7, Norwalk, Conn.) was used to determine the thermal transitions of the compounds. All scans were carried out from 30° C. to 200° C. at a heating and cooling rate of 10° C./minute and 40° C./min, respectively, except for 1-(3-methoxybenzyl)-3-(1-propenyl) thiourea, for which the scans were carried out from 0° C. to 200° C. at a heating rate of 10° C./min, and 1-(3-methoxybenzyl)-3-octadecyl thiourea, for which both the heating and cooling rates were 10° C./min. 1,3-di(3-methoxybenzyl) thiourea and 1-(3-methoxybenzyl)-3-dodecyl thiourea were heated to 300° C., and 1-(3-methoxybenzyl)-3-(4-methoxybenzoyl) thiourea was heated to 250° C. to determine the decomposition temperature. The decomposition temperature was taken as the onset of a decrease in the slope of the temperature-heat flow DSC curve. The first heating curve was recorded in all cases, and liquid nitrogen was used to quench the samples after the first heating.

Data set [6] can be described thus: Behaviour on addition of water to DMSO solution (sample preparation). Format: physicochemical. The note with it: dissolved in 50 μl DMSO, water added to make 1 mg/ml. How it is done:
Test compounds (1–2 mg) were originally made up at a concentration of 1 mg/ml in artificial seawater, except for water insoluble compounds, which were dissolved in 50 μl of dimethyl sulfoxide (DMSO) prior to adding enough water to make a 1 mg/ml solution. Serial dilutions were performed in 100 μl of seawater in triplicate in the wells of a 96-well microplate to give appropriate concentrations. Control wells for both water and DMSO were included with each experiment. A 100 μl solution of naupli (10–30) was added to each well, and the covered plate was incubated for 24 h at 27° C. The number of non-motile, and the total number of, naupli were counted in each well using a binocular microscope (10×). LC50 values were then calculated by Probit analysis (Finney, D. J., 1971, “Probit Analysis,” 3rd Ed.; University Press: Cambridge [Eng.]).

The mark [7] stands for this setting: heated to 30° C. for 4 h, read-out: Solubility at 30° C.
Setting [8] is: heated to 50° C. for 4 h, read-out: Solubility at 50° C.

For the compound `CCCCCCCCCCCCNC(=S)NCc1cccc(OC)c1` [1-(3-methoxybenzyl)-3-dodecyl thiourea], in data set [1], the “Oxidative Stability (RBOT)” value came out at 41 min and the “Oxidative stability in the RBOT test, in words” value was “doubled”. For the same compound, in data set [2], the “UVBMAX Molar Absorptivity” value is on record as 2625 and the “UVAMAX Molar Absorptivity” value is listed as 0.0. This compound also came in with an LC50 at 24 h in “in vivo” of 3.8 µg/mL (≈ 10.4 µM). The “toxicity against brine shrimp, in words” value in data set [3] is “high enough to consider its use in therapeutic tests for killing cancer cells”. Also, in data set [4] (setting [7]), the solubility at 4 h was 1040 µg/mL (≈ 2860 µM). For the same compound, the solubility at 4 h in data set [4] (setting [8]) came out at 909 µg/mL (≈ 2490 µM). The same compound displayed a Decomposition Temperature in data set [5] of 273 °C. For the same compound, the “behaviour upon the addition of water” value in data set [6] was “precipitated out of solution”.

Take `CCCCCCCCNC(=S)NCc1cccc(OC)c1` [1-(3-methoxybenzyl)-3-octyl thiourea]: in data set [1], the “Oxidative Stability (RBOT)” value was found to be 43 min and the “Oxidative stability in the RBOT test, in words” value was “doubled”. Moreover, in data set [2], the “UVBMAX Molar Absorptivity” value stood at 2999 and the “UVAMAX Molar Absorptivity” value came out at 0.0. The LC50 at 24 h in the data set “in vivo” was found to be 240 µg/mL (≈ 778 µM). Besides, the “toxicity against brine shrimp, in words” value in data set [3] is recorded as “low toxicity”. The solubility at 4 h in data set [4] (setting [7]) is 3070 µg/mL (≈ 9950 µM). Further, in data set [4] (setting [8]), the solubility at 4 h was determined as 2490 µg/mL (≈ 8070 µM). Further, the Decomposition Temperature in data set [5] is over 200 °C. Also, the “behaviour upon the addition of water” value in data set [6] was “precipitated out of solution”.
